This passage reports Effective results from US20190314431A1, “Method of Discovery of Potential Bioactive Compounds in Herbals by Regrouping after Chromatography” (priority 2018, published 2019).

This assay has as its system mice initiated with morphine. Nature of the assay: Anti-opioid addiction effectiveness test of grouped herbal compounds in mice. It is filed as in vivo. Here is the method: Mice will be initiated with morphine at 1 mg/ml for 21 days.
The second test: use separate groups of compounds to test effectiveness in mice. The definition of effective.
1. Ten Mice in Each Group.

Consider `CN1CC[C@]23c4c5ccc(O)c4O[C@H]2[C@@H](O)C=C[C@H]3[C@H]1C5` [Morphine], for which the Effective entry is listed as “Yes” (3rd test, regrouped compounds of groups 2 and 9); “Yes” (second test, ten mice in each group, mice initiated with morphine at 1 mg/ml for 21 days).
